Measured values reported in PMC7246765, “Development of a Radiofluorinated Adenosine A2B Receptor Antagonist as Potential Ligand for PET Imaging” (International Journal of Molecular Sciences, 2020).
“And” between values parts separate entries of the source, which are not always exact repeats. Equal entries are not always repeated.

Experiments:
[1] = biological target: T1, human adenosine A1 receptor (Homo sapiens, UniProt P30542); assay: Competitive radioligand binding with [3H]CCPA, membranes of CHO or HEK cells; conditions: ratio of Ki values
T1 construct: host or cells: CHO or HEK cells
T1 sequence (P30542 1-326): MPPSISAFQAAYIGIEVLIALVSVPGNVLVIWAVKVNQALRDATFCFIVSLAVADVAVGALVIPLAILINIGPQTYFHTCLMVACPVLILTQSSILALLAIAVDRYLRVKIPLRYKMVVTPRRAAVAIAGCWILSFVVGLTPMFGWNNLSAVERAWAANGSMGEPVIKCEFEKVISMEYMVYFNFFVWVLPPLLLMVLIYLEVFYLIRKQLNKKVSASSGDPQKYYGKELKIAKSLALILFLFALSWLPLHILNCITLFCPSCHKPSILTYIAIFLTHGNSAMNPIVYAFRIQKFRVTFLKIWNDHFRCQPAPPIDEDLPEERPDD
Procedure: (§1) The binding affinities of 2 and 9 at the four human adenosine receptor subtypes A2B, A2A, A1, and A3, presented in Table 1, were determined in competitive binding assays using appropriate radioligands and membrane preparations of Chinese hamster ovary (CHO) cells or human embryonic kidney (HEK) cells, respectively, recombinantly expressing the corresponding human receptor subtype.
(§2) Membrane preparations of recombinant CHO or HEK (human embryonic kidney) cells expressing the respective human adenosine receptor subtype were obtained according to Borrman et al. or purchased from Perkin Elmer, Germany. Radioligand binding assays using human A1, A2A, A2B and A3 receptors were performed according to Alnouri et al..
[^3H]2-Chloro-N^6cyclopentyladenosine ([^3H]CCPA, molar activity: 58 Ci/mmol, 1 nM [28]) for the A1 receptor,
(§3) [^3H](R)-8-ethyl-4-methyl-2-(phenyl)1,4,7,8-tetrahydro-5H-imidazo[2,1-i]purin-5-one ([^3H]PSB-11, molar activity: 53 Ci/mmol, 1 nM [30]) for the A3 receptor. Three separate experiments were performed to determine the Ki values. All data were analyzed with GraphPad Prism, Version 4.1 (GraphPad Inc., La Jolla, CA,USA).

[2] = biological target: T2, human adenosine A2B receptor (Homo sapiens, UniProt P29275); conditions: cited from earlier work
T2 construct: host or cells: CHO or HEK cells
T2 sequence (P29275 1-332): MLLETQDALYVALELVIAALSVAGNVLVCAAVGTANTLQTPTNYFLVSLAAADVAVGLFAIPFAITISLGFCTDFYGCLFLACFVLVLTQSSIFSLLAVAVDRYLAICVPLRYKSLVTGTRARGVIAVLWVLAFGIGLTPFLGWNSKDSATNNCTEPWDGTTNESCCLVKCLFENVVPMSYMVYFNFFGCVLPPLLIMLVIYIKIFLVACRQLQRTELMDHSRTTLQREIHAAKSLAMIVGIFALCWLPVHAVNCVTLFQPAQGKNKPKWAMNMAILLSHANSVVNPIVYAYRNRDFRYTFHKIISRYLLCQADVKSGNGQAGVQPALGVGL

[3] = biological target: T3, human adenosine A3 receptor (Homo sapiens, UniProt P0DMS8); conditions: cited from earlier work
T3 construct: host or cells: CHO or HEK cells
T3 sequence (P0DMS8 1-318): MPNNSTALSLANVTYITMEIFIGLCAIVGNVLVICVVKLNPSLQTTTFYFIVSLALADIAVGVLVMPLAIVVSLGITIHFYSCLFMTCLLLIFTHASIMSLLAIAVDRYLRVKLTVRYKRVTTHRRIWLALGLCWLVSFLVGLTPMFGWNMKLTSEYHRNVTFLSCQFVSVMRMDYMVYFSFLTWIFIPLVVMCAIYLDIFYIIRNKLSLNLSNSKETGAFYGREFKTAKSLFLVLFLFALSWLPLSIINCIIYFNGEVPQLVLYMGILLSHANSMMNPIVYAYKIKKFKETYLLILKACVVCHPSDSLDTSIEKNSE

[4] = biological target: T3, human adenosine A3 receptor; assay: Competitive radioligand binding with [3H]PSB-11, membranes of CHO or HEK cells; conditions: ratio of Ki values
Procedure: as §1, §2, §3

[5] = biological target: T4, human adenosine A2A receptor (Homo sapiens, UniProt P29274); conditions: cited from earlier work
T4 construct: host or cells: CHO or HEK cells
T4 sequence (P29274 whole entry): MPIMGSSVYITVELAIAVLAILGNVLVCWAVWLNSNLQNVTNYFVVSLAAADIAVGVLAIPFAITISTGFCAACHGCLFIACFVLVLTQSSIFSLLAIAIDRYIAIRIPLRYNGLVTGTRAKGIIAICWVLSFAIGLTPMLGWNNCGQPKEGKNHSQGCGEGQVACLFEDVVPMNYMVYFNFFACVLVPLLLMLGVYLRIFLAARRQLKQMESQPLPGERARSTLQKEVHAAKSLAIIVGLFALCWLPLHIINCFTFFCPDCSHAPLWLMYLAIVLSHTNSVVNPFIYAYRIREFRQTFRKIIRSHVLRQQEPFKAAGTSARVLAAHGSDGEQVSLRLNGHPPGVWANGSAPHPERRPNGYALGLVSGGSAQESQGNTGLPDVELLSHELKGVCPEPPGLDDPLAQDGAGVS

[6] = biological target: T1, human adenosine A1 receptor; conditions: cited from earlier work
[7] = biological target: T4, human adenosine A2A receptor; assay: Competitive radioligand binding with [3H]MSX-2, membranes of CHO or HEK cells; conditions: ratio of Ki values
Procedure: as §1, §2
[^3H]3-(3-hydroxypropyl)-7-methyl-8-(m-methoxystyryl)-1-propargylxanthine, ([^3H]MSX-2, molar activity: 84 Ci/mmol, 1 nM [29]) for the A2A receptor,
as §3

[8] = Shake-flask lipophilicity, n-octanol/phosphate-buffered saline; assay type: physicochemical; conditions: n-octanol/PBS, n = 4
Text: The partition coefficient of [^18F]9 was experimentally determined for the n-octanol/PBS system by the shake-flask method as described previously.

[9] = Dynamic small-animal PET biodistribution, baseline and blocking with compound 2; assay type: in vivo, female CD-1 mice; conditions: for SUV 60 min p.i. lung / TAC peak SUV lung: single animals, n = 2
Text: We then performed a pilot study to estimate very basic characteristics of the pharmacokinetics of the new radiotracer via dynamic small-animal PET imaging with [^18F]9 in female CD-1 mice. The time–activity curves (TACs) obtained in different tissues under both baseline (administration of vehicle, n = 2) and blocking (administration of compound 2, n = 2) conditions are presented in Figure 3; the whole-body maximum intensity projections are shown in Figure S3 in the Supplementary Material. The overall biodistribution of [^18F]9 under baseline conditions corresponded to the known quite ubiquitous but physiologically not very dense expression of A2B receptors. Although higher levels of the A2B receptor protein have been reported in the literature for certain cell types, such as alveolar epithelial cells and endothelial cells, the resemblance of the TACs in peripheral organs such as lungs under baseline and blocking conditions indicated no target-specific retention of [^18F]9 (TAC peak SUV lung: 3.09 and 2.88 vs. 2.30 and 1.57, resp.; SUV60 min p.i., lung: 0.44 and 0.25 vs. 0.32 and 0.20, resp.). […] This discrepancy between our and Petroni’s results might indicate differences in the biological effects exerted by agonistic (BAY60-6583) or antagonistic (compound 2) A2B receptor ligands, as well as model-related differences such as the expression of A2B receptors. The latter option could also explain the about 10-fold lower uptake of [^18F]9 in the brown adipose tissue (BAT) of female CD-1 mice in comparison to the uptake of [^11C]-4 in the BAT of male Wistar rats.
The biodistribution of the radiotracer was assessed in female CD-1 mice (30.6 ± 0.4 g bodyweight) using a dedicated small-animal PET-MRI scanner (nanoScan, Mediso, Hungary) over 60 min followed by a subsequent T1-weighted MR. The anaesthetized (2% isoflurane, carrier gas mixture of 40% air and 60% O2) female CD-1 mice were kept on a heated animal bed to maintain body temperature during imaging. Vehicle (10% DMSO in isotonic 0.9% NaCl solution) or compound 2 at 1 mg/kg bodyweight were co-injected with the tracer ([^18F]9: injected dose of 6.9 ± 0.1 MBq, equivalent to 10.4 ± 0.9 fmol/g bodyweight) intravenously 20 seconds after starting the dynamic PET acquisition, performed in normal mode and with a coincidence mode 1–5. For subsequent dynamic reconstructions (Nucline v2.01, Mediso, Hungary) by Ordered Subset Expectation Maximization (OSEM3D) with an attenuation correction with four iterations, six subsets, and a voxel size of 0.4 mm^3, list mode data were sorted into sinograms (12 × 10 s, 6 × 30 s, 5 × 60 s, and 10 × 300 s). PMOD software (v4.005, PMOD Technologies LLC, Zurich, Switzerland) was used for analysis of reconstructed studies and the results are expressed as standardized uptake value (SUV) given in mean ± SD.

[10] = In vivo metabolism in mice, plasma and urine analysed by RP-HPLC and MLC; set-up: species or system CD-1 mice; conditions: 30 min p.i.
Procedure: The metabolism of [^18F]9 in vivo was investigated in CD-1 mice by taking blood and urine samples at 30 min post i.v. injection of the radiotracer (n = 2). Analysis of the respective samples was performed by micellar (MLC) and reversed-phase chromatography (RP-HPLC) as two complementary HPLC methods. MLC is also a reversed-phase HPLC mode, but it uses a mobile phase consisting of an aqueous solution with a surfactant above its critical micellar concentration. The formed micelles are able to dissolve the proteins and other components of a biological sample and therefore enable a direct injection of the plasma probe into the HPLC system without eliminating the tissue matrix. In contrast, for RP-HPLC analysis, aliquots of the plasma samples were treated with a mixture of ACN/water to precipitate the proteins, resulting in recoveries of activity of about 93%.
For metabolism studies (n = 2), [^18F]9 (30–40 MBq) was administered as a bolus in awake female CD-1 mice (10–12 weeks, 25–32 g) via the tail vein. At 30 min p.i., the animals were slightly anesthetized with isoflurane, and blood was sampled from retro-orbital plexus. Blood plasma was obtained as a supernatant after centrifugation of the whole blood samples (14,000 rpm, 1 min; Centrifuge 5418, Eppendorf Vertrieb Deutschland GmbH, Wesseling-Berzdorf, Germany). After cervical luxation of the animals, urine samples were obtained. All samples were weighed and the respective activity measured in a dose calibrator (ISOMED 2010; MED Nuklear-Medizintechnik Dresden GmbH, Dresden, Germany).
MLC: For preparation of the MLC samples, mouse plasma (20–50 µL) was dissolved in 200 µL of 200 mM aq. sodium dodecyl sulfate (SDS) and injected into the MLC system. The MLC system was built up as described previously. Separations were performed using a Reprosil-Pur C18-AQ column (250 × 4.6 mm + 10 mm pre-column, particle size: 10 µm) and an eluent mixture of EtOH/100 mM aq. SDS/25 mM (NH4)2HPO4 in gradient mode (0–10 min at 100% 100 mM aq. SDS, 10–15 min up to 10% EtOH, 15–20 min at 10% EtOH, 20–21 min up to 100% 100 mM aq. SDS; 21–30 min at 100% 100 mM aq. SDS) at a flow rate of 1.0 mL/min. The same HPLC apparatus was used as described in the radiochemistry part in generals.
RP-HPLC: Protein precipitation was performed by addition of an ice-cold mixture of ACN/water (9/1; v/v) in a ratio of 4:1 (v/v) of organic solvent to plasma. The sample workup was performed according to a procedure previously described in detail. The urine samples were diluted with water and directly injected. To analyze the samples, the same HPLC apparatus and method was used as described in the radiochemistry section.

[11] = blocking (compound 2, 1 mg/kg co-injected)

O=C(Nc1cnc(-c2ccnc(F)c2)c(-c2ccccc2F)n1)C1CC1 [Compound 1]
Selectivity Ratio Ki(Ax)/Ki(A2B): A1/A2B [1]: 4.5
Ki [2]: 0.00424 ± 4e-05 µM
Ki [3]: 0.796 ± 0.026 µM
Selectivity Ratio Ki(Ax)/Ki(A2B): A3/A2B [4]: 188
Ki [5]: 0.055 ± 0.0061 µM
Ki [6]: 0.019 ± 0.0052 µM
Selectivity Ratio Ki(Ax)/Ki(A2B): A2A/A2B [7]: 13

O=c1[nH]c(=O)c2cc(-c3ccnc([18F])c3)c(-c3ccco3)nc2[nH]1 [[^18F]9]
logD [8]: 1.4 ± 0.1
SUV 60 min p.i. lung ([9]; baseline (vehicle)): 0.44 and 0.25
TAC peak SUV lung ([9]; baseline (vehicle)): 3.09 and 2.88
SUV brain after 60 min p.i. ([9]; baseline, mean (single values)): 0.11 (0.14 and 0.08)
initial TAC peak SUV brain ([9]; baseline, mean (single values)): 0.19 (0.20 and 0.17)
SUV 60 min p.i. lung [9, 11]: 0.32 and 0.20
TAC peak SUV lung [9, 11]: 2.30 and 1.57
TAC peak SUV brain ([9]; co-administration of compound 2, mean (single values)): 0.12 (0.11 and 0.13)
fold lower uptake in brown adipose tissue (BAT) versus [11C]-4 in BAT of male Wistar rats ([9]; female CD-1 mice, comparison with ref 13): about 10 fold
activity concentration in urine (SUV) ([10]; CD-1 mice): 75
intact radiotracer, fraction of total activity in plasma ([10]; CD-1 mice, i.v., n = 2): about 60%
intact tracer in plasma, RP-HPLC, calculated considering the 93% recovery ([10]; mouse plasma): 60%
intact radiotracer in plasma, MLC ([10]; mouse plasma, exemplary MLC chromatogram): 57%
intact radiotracer in plasma, RP-HPLC ([10]; mouse plasma, exemplary RP-HPLC chromatogram): 64%
